These results are taken from US6180629A, “[4,5]-Fused-1,3-disubstituted-1,2-diazine-6-one derivatives with nitrogen containing substitutents in position one for the treatment of neoplasia” (Cell Pathways, Inc., priority 1998, dated 2001).

The inhibition is the change of the read-out against control, counted positive when it falls. For orientation: IC50 means the point on the concentration scale where inhibition reaches its midpoint. By EC50 is commonly meant the concentration at which the effect is half-maximal.

Each structure is given as a SMILES string.

For series [1], the system named is human colon carcinoma cell line, SW-480. Put plainly: Growth inhibition of SW-480 human colon carcinoma cells, Sulforhodamine B (SRB) protein binding assay, six days. The note with it: SW480, 144 h. In kind it is cell-based. The procedure: The compounds of Examples 1-3 were assayed for their growth inhibitory activity on the human colon carcinoma cell line, SW-480 obtained from ATCC (Rockville, Md.), to ascertain the degree of growth inhibition. Growth inhibition of this cell line is indicative of a benefit on precancerous lesions and neoplasms. The cell line and growth assay employed for such experiments are well characterized, and are used to evaluate the anti-neoplastic properties of NSAIDs. The assay is used by the United States National Cancer Institute in its screening program for new anti-cancer drugs.
Drug stock solutions were made in 100% DMSO and were then diluted with RPMI media for cell culture testing. All drug solutions were prepared fresh on the day of testing. The cultured cells were obtained at passage #99 and grown in RPMI media supplemented with 5% fetal calf serum, and 2 mM glutamine, 100 u/ml penicillin, 100 U/ml streptomycin, and 0.25 μg/ml amphotericin. The cultures were maintained in a humidified atmosphere of 95% air and 5% CO2 at 37° C. The cultures were passaged at preconfluent densities using a solution of 0.05% trypsin and 0.53 mM EDTA. Cells were plated at 1000 cells/well for 96 well flat-bottom microtiter plates.
Tumor cell growth inhibition was assessed using the Sulforhodamine B (SRB) protein binding assay. In this assay, tumor cells were plated in 96-well plates and treated with drug-containing media for six days (continuous exposure). For each plate, 6 wells were designated as no treatment controls, six wells as vehicle (0.1% DMSO) controls, and the remaining wells for drug dilutions with three wells per drug concentration. At the end of the exposure period, the cells were fixed and stained with sulforhodamine B, a protein binding dye. The dye was then solubilized, and the optical density of the resulting solution was determined on a 96-well plate reader. The mean dye intensity of the treated wells was then divided by the mean dye intensity in the control wells (6 wells of each) to determine the effect of the drug on the cells. Dye intensity is proportional to the number of cells or amount of protein per well. The resultant "percent inhibition" value then represents the degree of growth inhibition caused by the drug.
An IC50 value was also determined for the compound of Example 3. This value is equivalent to the concentration of drug needed to inhibit tumor cell growth by 50% relative to a vehicle control. IC50 value was obtained graphically by connecting the mean values for each drug concentration tested. Each experiment included at least three wells per drug concentration. Concentration was plotted on a log scale on the X-axis.

For series [2], the system named is SW-480 colon adenocarcinoma cells. Put plainly: Apoptosis (DNA fragmentation) in SW-480 colon adenocarcinoma cells, Cell Death Detection ELISA. Type of series: cell-based, human. The note with it: for fold induction at 100 µM: SW480, read-out: DNA Fragmentation FS (Fold stimulation, FS=ODmax/ODveh); for fold induction at 100 µM / EC50: SW-480, 48 hrs; for Apoptosis Level (Mean OD Value ± SD): vehicle 0.175 ± 0.02. The procedure:
Apoptosis was measured using an assay of cell death based on a characteristic feature of apoptotic cells (i.e., fragmented DNA). Briefly, SW-480 colon adenocarcinoma cells were plated in 96-well microtitre plates ("MTP") at a density of 10K cells/well in 180 μl and were incubated for 24 hrs. Cells were then treated with 20 μl aliquots of appropriately diluted compound, and allowed to incubate for an additional 48 hrs.
After the incubation, samples were prepared according to the following steps. The MTP was centrifuged (15 min., 1000 rpm) and the supernatant was carefully removed by fast inversion of the MTP. The cell pellets in each well were resuspended in 200 μl lysis buffer and incubated for 45 min. at room temperature to lyse the cells. The lysates were then centrifuged (15 min., 1000 rpm) and 20 μl aliquots of the supernatant (=cytoplasmicfraction) were transferred into the streptavidin coated MTP for analysis. Care was taken not to shake the lysed pellets in the MTP (=cell nucleii containing high molecular weight, unfragmented DNA). Samples were analyzed immediately, because storage at 4° C. or -20° C. reduces the ELISA-signals.
Samples were then processed according to a DNA fragmentation assay protocol, and dose-response curves were generated based on optical density readings. Quantification of DNA was done by a commercially available photometric enzyme-immunoassay manufactured by Mannheim-Boehringer under the name "Cell Death Detection ELISA^plus ". The assay is based on a quantitative sandwich-enzyme-immunoassay-principle using mouse monoclonal antibodies directed against DNA and histones, respectively. This allows the specific determination of mono and oligonucleosomes in the cytoplasmatic fraction of cell lysates. In brief, the assay procedure is as follows. The sample (cell-lysate, serum, culture-supernatant etc.) is placed into a streptavidin-coated MTP. Subsequently, a mixture of anti-histone-biotin and anti-DNA-POD is followed by incubation for 2 hours. During the incubation period, the anti-histone antibody binds to the histone-component of the nucleosomes and simultaneously fixes the immunocomplex to the streptavidin-coated MTP via its biotinylation. Additionally, the anti-DNA-POD antibody reacts with the DNA component of the nucleosomes. After removal of unbound antibodies by a washing step, the amount of nucleosomes is quantified by the POD retained in the immunocomplex. POD is determined photometrically with ABTS® (2,2'-Azino-di[3-ethylbenzthiazolin-sulfonat]) as substrate.
Fold stimulation (FS=ODmax/ODveh), an indicator of apoptotic response, was determined for each compound tested.
On the technique in general: An ELISA detects its analyte on a solid surface through an enzyme-linked reagent.

In the next series the test system is colonic polyps. As to conditions: patients; cited from earlier work.
For series [3] the following is noted: chronic administration, high cancer-risk patients; cited from earlier work.

Regarding `O=C(Cn1nc(-c2ccccc2)c2ccccc2c1=O)NCc1ccccc1` [Example 1, 2-(1-Oxo-4-Phenylphthalazin-2-yl)-N-Benzylethanamide], the inhibition at 100 µM in series [1] (six days continuous exposure) came to 90%. The fold induction at 100 µM in series [2] (Homo sapiens) was 7.3.

On to `O=C(Cn1nc(-c2ccc(F)cc2)c2ccccc2c1=O)NCc1ccccc1` [Example 2], for which the inhibition at 100 µM in series [1] (six days continuous exposure) was -7.8%. Moreover, in series [2] (Homo sapiens), the fold induction at 100 µM is 1.2.

For `O=C(Cn1nc(-c2ccc(Cl)cc2)c2ccccc2c1=O)NCc1ccccc1` [Example 3, 2-[4-(4-Chlorophenyl)-1-Oxo-Phthalazin-2-yl]-N-Benzylethanamide], the inhibition at 100 µM in series [1] (six days continuous exposure) came out at 86.1%. Also, the activity at 0.001 µM in series [1] (Dose 0.001 μM, read-out: Growth Inhibition (% Vehicle ± SD)) was 105 ± 20%. The activity at 0.01 µM in series [1] (Dose 0.01 μM, read-out: Growth Inhibition (% Vehicle ± SD)) turned out to be 99 ± 11.9%. Also, the activity at 0.1 µM in series [1] (Dose 0.1 μM, read-out: Growth Inhibition (% Vehicle ± SD)) worked out at 91 ± 5%. Moreover, the activity at 1 µM in series [1] (Dose 1.0 μM, read-out: Growth Inhibition (% Vehicle ± SD)) was determined as 94 ± 17.9%. Further, in series [1] (Dose 10.0 μM, read-out: Growth Inhibition (% Vehicle ± SD)), the activity at 10 µM was 34 ± 17.8%. The activity at 100 µM in series [1] (Dose 100.0 μM, read-out: Growth Inhibition (% Vehicle ± SD)) worked out at 6 ± 1.6%. Further, the IC50 in series [1] (six days continuous exposure, read-out: IC50 (tumor cell growth, relative to vehicle control)) came to 5.18 µM. Also, the “Apoptosis Level (Mean OD Value ± SD)” value is 0.156 ± 0.02 OD in series [2] (Dose 0.001 μM); 0.165 ± 0.03 OD in series [2] (Dose 0.01 μM); 0.161 ± 0.02 OD in series [2] (Dose 0.1 μM); 0.208 ± 0.01 OD in series [2] (Dose 1.0 μM); 1.789 ± 0.32 OD in series [2] (Dose 10.0 μM); 2.763 ± 0.29 OD in series [2] (Dose 100.0 μM). Further, the 50% effective concentration (EC50) was determined as 7.2 µM in series [2] (Homo sapiens, SW480, 48 h) and 7.19 µM in series [2]. Further, the fold induction at 100 µM in series [2] (Homo sapiens) was found to be 6.1.

With `CC1=C(CC(=O)O)c2cc(F)ccc2/C1=C\c1ccc([S+](C)[O-])cc1` (centres unmarked) [sulindac], the “effect on colonic polyps” value in the series on colonic polyps is “Polyps virtually disappear”. In addition, the gastric side effects result in series [3] is on record as “causes gastric side effects in many such patients”.
